What was measured:
Type in all cases: physicochemical
[1] = Characterization of salt forms (XRPD, DSC, TGA, KF, HPLC, NMR/IC)
Procedure: Salt Forms identified in the investigation (Table 16) were further characterized by XRPD, DCS, TGA, KF, HPLC and ^1H NMR/IC (Table 19).
About 419 mg of sodium salt Form F was obtained as off-white solid in 76% yield.

[2] = Bulk stability of sodium salt Form F (1 week stress); conditions: for Bulk (XRPD) / Color / Purity, Bulk (HPLC): Solid state; for Decrease in chemical purity: one week stress at 25° C./92% RH
Procedure: Sodium salt Form F was placed at 25° C./92% RH in an open container, at 40° C./75% RH in an open container and at 60RC in a closed container for 1 week. Samples after the stress were characterized by XRPD and HPLC and inspected for color change.

[3] = Solubility in aqueous pH buffers and bio-relevant fluids at 37° C.; conditions: for XRPD 24 h: residual solid
Procedure: Solubility of the Form B and sodium salt Form F was measured in 7 aqueous pH buffers and bio-relevant fluids including pH 1.2 HCl solution (0.2N), pH 4.5 acetate buffer (50 mM), pH 6.8 phosphate buffer (50 mM), pH 2.0 SGF, pH 6.5 FaSSIF-v1, pH 5.0 FeSSIF-v1 and water at 37° C. for 2 h and 24 h, respectively.
Accurate 20 mg of the Form B was weighed into a 20 mL glass vial. Then, 10 mL of solubility medium was added. The sodium salt Form F amount used was equivalent to 20 mg anhydrous form. Obtained suspensions were stirred at 37° C. at 400 rpm and sampled at 2 hours and at 24 hours, respectively. The samples were centrifuged at 37° C. at 4,000 rpm for 4 min. Supernatants were analyzed by HPLC and pH meter for solubility and pH value, respectively. Residual solids (wet cakes) from the 24 hours samples were also characterized by XRPD to determine physical form.

[4] = Hygroscopicity of sodium salt Form F by DVS at 25° C.; conditions: for Form and crystallinity change after DVS test: DVS 25° C.
Procedure: Hygroscopicity of sodium salt Form F was evaluated by dynamic vapor sorption (DVS) test at 25° C.

[5] = Photostability evaluation of sodium salt Form F
[6] = 25° C./92% RH, open container, 1 week
[7] = 40° C./75% RH, open container, 1 week
[8] = 60° C., tight container, 1 week
[9] = FaSSIF-v1, pH 6.5, 37° C., LOQ: 1.5 μg/mL
[10] = pH 1.2 HCl solution (0.2N), 37° C.
[11] = pH 4.5 acetate buffer (50 mM), 37° C.
[12] = pH 4.5 acetate buffer (50 mM), 37° C., LOQ: 1.5 μg/mL
[13] = pH 6.8 phosphate buffer (50 mM), 37° C.
[14] = pH 6.8 phosphate buffer (50 mM), 37° C., LOQ: 1.5 μg/mL
[15] = Solid state, photo (visible light, 1.2 million lux-hrs)

CCN(C)S(=O)(=O)[N-]c1ccc(F)c(Oc2ccc3ncn([C@H]4COC5(CCN(C(=O)CC6(O)CCN(c7cc8c(cc7F)c(N7CCC(=O)NC7=O)nn8C)CC6)CC5)C4)c(=O)c3c2)c1C#N.[Na+] [Compound 1 sodium salt Form F]
Crystallinity by XRPD ([1]; Table 20, batch of Example 24): Medium crystallinity
DSC, heating rate [10° C./min]: Tonset ([1]; Table 20, batch of Example 24): Tonset 194.7 °C
Melting enthalpy ([1]; Table 20, batch of Example 24): 32.4 J/g
Residual solvent by ^1H NMR, weight % ([1]; Table 20, batch of Example 24): No detectable residual solvent
Water content by Karl Fischer ([1]; Table 20, batch of Example 24): 2.5 equiv. water
Water content by Karl Fischer, weight % ([1]; Table 20, batch of Example 24): 4.6 % by weight
Melting onset (DCS, ° C.) ([1]; Tonset, listed as Sodium salt Form F): Tonset 197.7 °C
Weight loss (TGA) ([1]; at 100° C.): 2.7% at 100° C.,
Weight loss (TGA) ([1]; at 100° C.-170° C.): 3.2% at 100° C.-
Weight loss in % at ° C. (Thermogravimetry, heating rate [10° C./min]) ([1]; at 180° C., Table 20, batch of Example 24): 4.8% at 180 °C
Water content (by KF) ([1]; listed as Sodium salt Form F): 6.2% by % by weight
Crystallinity change ([2]; 60° C. in a tight/closed container, 1 week): slight crystallinity decrease
Bulk (XRPD) [2, 6]: No form change
Color [2, 6]: No change of color
Purity, Bulk (HPLC) [2, 6]: 97.7%
Bulk (XRPD) [2, 7]: No form change
Color [2, 7]: No change of color
Purity, Bulk (HPLC) [2, 7]: 98.5%
Bulk (XRPD) [2, 8]: No form change, slight crystallinity decrease
Color [2, 8]: No change of color
Purity, Bulk (HPLC) [2, 8]: 98.9%
Decrease in chemical purity ([2]; listed as Form F): 1.2%
Decrease in chemical purity ([2]; listed as Sodium salt Form F): about 1.2%
Morphic form stability (form change) ([2]; one week, 25° C./92% RH open, 40° C./75% RH open, 60° C. tight container): no form change
Disproportionation after solubility test (IC) [3]: partially disproportionated
pH of supernatant 24 h ([3]; FaSSIF-v1, pH 6.5, 37° C.): (pH = 6.7)
Solubility 2 h [3, 9]: <LOQ
Solubility 24 h [3, 9]: <LOQ
Solubility 2 h ([3]; FeSSIF-v1, pH 5.0, 37° C.): 6.7 µg/mL
Solubility 24 h ([3]; FeSSIF-v1, pH 5.0, 37° C.): 10.4 µg/mL
pH of supernatant 24 h ([3]; FeSSIF-v1, pH 5.0, 37° C.): (pH = 5.1)
Solubility 2 h ([3]; SGF, pH 2.0, 37° C.): 10.9 µg/mL
Solubility 24 h ([3]; SGF, pH 2.0, 37° C.): 8.6 µg/mL
pH of supernatant 24 h ([3]; SGF, pH 2.0, 37° C.): (pH = 2.2)
Solubility 24 h ([3]; Water, 37° C.): 73.0 µg/mL
pH of supernatant 24 h ([3]; Water, 37° C.): (pH = 8.7)
Solubility 2 h ([3]; Water, 37° C., LOQ: 1.5 μg/mL): 98.8 µg/mL
pH dependence of solubility ([3]; aqueous media, 37° C.): pH dependent solubility
Solubility compared with Form B ([3]; especially pH 1.2 HCl solution, pH 4.5 acetate buffer, SGF, FeSSIF-v1, 37° C.): better solubility than that of the Form B
Solubility 2 h [3, 10]: 19.3 µg/mL
Solubility 24 h [3, 10]: 51.1 µg/mL
pH of supernatant 24 h [3, 10]: (pH = 1.0)
Crystallinity change after solubility test ([3]; pH 1.2 HCl solution and SGF): crystallinity decrease
pH of supernatant 24 h [3, 11]: (pH = 4.6)
Solubility 2 h [3, 12]: <LOQ
Solubility 24 h [3, 12]: 3.7 µg/mL
pH of supernatant 24 h [3, 13]: (pH = 6.9)
Solubility 2 h [3, 14]: <LOQ
Solubility 24 h [3, 14]: <LOQ
XRPD 24 h ([3]; FaSSIF-v1, pH 6.5, 37° C.): No form change
XRPD 24 h ([3]; FeSSIF-v1, pH 5.0, 37° C.): No form change
XRPD 24 h ([3]; Water, 37° C.): No form change
XRPD 24 h [3, 11]: No form change
XRPD 24 h [3, 13]: No form change
1st desorp. Weight % change ([4]; 0% RH, 25° C.): 0.0%
2nd sorp. Weight % change ([4]; 0% RH, 25° C.): 0.0%
1st desorp. Weight % change ([4]; 10% RH, 25° C.): 0.6%
2nd sorp. Weight % change ([4]; 10% RH, 25° C.): 0.5%
1st desorp. Weight % change ([4]; 20% RH, 25° C.): 1.2%
2nd sorp. Weight % change ([4]; 20% RH, 25° C.): 0.8%
1st desorp. Weight % change ([4]; 30% RH, 25° C.): 2.2%
2nd sorp. Weight % change ([4]; 30% RH, 25° C.): 1.2%
1st desorp. Weight % change ([4]; 40% RH, 25° C.): 3.7%
1st sorp. Weight % change ([4]; 40% RH, 25° C.): 3.1%
2nd desorp. Weight % change ([4]; 40% RH, 25° C.): 3.9%
2nd sorp. Weight % change ([4]; 40% RH, 25° C.): 1.5%
1st desorp. Weight % change ([4]; 50% RH, 25° C.): 5.0%
1st sorp. Weight % change ([4]; 50% RH, 25° C.): 3.3%
2nd desorp. Weight % change ([4]; 50% RH, 25° C.): 5.2%
2nd sorp. Weight % change ([4]; 50% RH, 25° C.): 2.2%
1st desorp. Weight % change ([4]; 60% RH, 25° C.): 6.1%
1st sorp. Weight % change ([4]; 60% RH, 25° C.): 3.4%
2nd desorp. Weight % change ([4]; 60% RH, 25° C.): 6.2%
2nd sorp. Weight % change ([4]; 60% RH, 25° C.): 3.5%
1st desorp. Weight % change ([4]; 70% RH, 25° C.): 7.5%
1st sorp. Weight % change ([4]; 70% RH, 25° C.): 3.7%
2nd desorp. Weight % change ([4]; 70% RH, 25° C.): 7.7%
2nd sorp. Weight % change ([4]; 70% RH, 25° C.): 5.8%
1st desorp. Weight % change ([4]; 80% RH, 25° C.): 9.7%
1st sorp. Weight % change ([4]; 80% RH, 25° C.): 4.1%
2nd desorp. Weight % change ([4]; 80% RH, 25° C.): 9.9%
2nd sorp. Weight % change ([4]; 80% RH, 25° C.): 7.9%
1st desorp. Weight % change ([4]; 90% RH, 25° C.): 15.5%
1st sorp. Weight % change ([4]; 90% RH, 25° C.): 7.0%
2nd desorp. Weight % change ([4]; 90% RH, 25° C.): 16.4%
2nd sorp. Weight % change ([4]; 90% RH, 25° C.): 13.1%
1st desorp. Weight % change ([4]; 95% RH, 25° C.): 16.7%
1st sorp. Weight % change ([4]; 95% RH, 25° C.): 16.7%
2nd desorp. Weight % change ([4]; 95% RH, 25° C.): 19.6%
2nd sorp. Weight % change ([4]; 95% RH, 25° C.): 19.6%
Form and crystallinity change after DVS test [4]: no changes in crystallinity
Form and crystallinity change after DVS test ([4]; listed as sodium salt Form F): no form change and no crystallinity decrease
Hygroscopicity ([4]; below 80% RH, 25° C.): slightly hygroscopic
Water uptake ([4]; from 80% RH to 95% RH at 25° C.): 12.6%
Chemical purity decrease after photostability evaluation [5]: about 1%
Bulk (XRPD) [5, 15]: No form change
Color [5, 15]: No change of color
Purity, Bulk (HPLC) [5, 15]: 97.9%
Purity, Control (HPLC) ([5]; photo test, control sample): 98.9%

Reference: patent publication US20250289827A1, “MORPHIC FORMS OF A MUTANT BRAF DEGRADER AND METHODS OF MANUFACTURE THEREOF” (C4 THERAPEUTICS, INC., priority 2022, published 2025)
